According to patent US10905738B2, “Synthetic peptides, prodrugs, pharmaceutical compositions and uses” (Biozeus Desenvolvimento De Produtos Biofarmacêuticos, priority 2018, dated 2021):
Where a SMILES comes first, the peptide text is derived from it.

What was measured:
[1] = tested on: cavernosal strips; assay: relaxation induced by electric stimuli in cavernosal strips pre-contracted with phenylephrine ex vivo; parameters: species or system rats of Sprague Dawley (SD) lineage; settings: peptides 10^−10 M; 10^−8 M; 10^−6 M; FIG. 3
Protocol: The relaxing potential of the peptides of the present invention on the smooth muscles of cavernous strips was evaluated ex vivo using tissue isolated from rats, a model that is largely used to test drug candidates for the treatment of ED (ITALIANO, G., CALABRÒ, A., PAGANO, F. A simplified in vitro preparation of the corpus cavernosum as a tool for investigating erectile pharmacology in the rat. Pharmacological research, 30(4): 325-334. 1994; GEMALMAZ, H., WALDECK, K., CHAPMAN, T. N., TUTTLE, J. B., STEERS, W. D., ANDERSSON, K E. In vivo and in vitro investigation of the effects of sildenafil on rat cavernous smooth muscle. The Journal of Urology, 165(3): 1010-1014.2001).
Male rats of Sprague Dawley (SD) lineage were sacrificed by guillotine; the penises were removed surgically and placed on a Petri dish containing Krebs—bicarbonate solution (NaCl 118.1 mM; KCl 4.7 mM; KH2PO4 1.0 mM; MgSO4 1.0 mM; NaHCO3 25.0 mM; CaCl2) 2.5 mM and Glucose 11.1 mM). The corpus cavernosum were dissected by removing the glans, urethra, spongeous body and dorsal vein, and then separated by cutting the fibrous septum between them. Cavernosal strips measuring 2×2×7 mm were mounted separately in a bath for isolated organs containing bicarbonate solution-Krebs (pH 7.4) at 37° C., aerated with 95% of O02 and 5% of CO2. The tissue was connected to a tension transducer and the changes in tension were continuously registered. The cavernosal strips were contracted with phenylephrine (10^−5 M) and subsequently relaxed by electrical stimulation at different frequencies (1 to 32 Hz). […] Differences in the percentage of relaxation between treatment and control were evaluated with regard to statistical significance by means of two-way variance analysis (Two-Way ANOVA) followed by Bonferroni post-test. For the comparison between the treatments and control in light of the stimulation in a single frequency, the results were evaluated by one-way analysis variance (One-Way ANOVA) followed by Bonferroni post-test. […]

[2] = tested on: monocrotaline-induced model of pulmonary arterial hypertension (PAH); assay: hemodynamic parameters and heart remodeling in monocrotaline-induced model of PAH; type: in vivo, male Wistar Rats; settings: 0.06 mg/kg intranasal twice daily for 14 days
Text: The monocrotaline (MCT) model is the most widely used animal model of PAH, being the oldest in existence and best described among the available models. This model offers the advantage of mimicking several key aspects of human PAH, including vascular remodeling, proliferation of smooth muscle cells, endothelial dysfunction, up-regulation of inflammatory cytokines, and right ventricle failure, after a single intraperitoneal or subcutaneous MCT injection (GOMEZ-ARROYO, J. G., FARKAS, L., ALHUSSAINI, A. A., FARKAS, D., KRASKAUSKAS, D., VOELKEL, N. F., BOGAARD, H. J. The Monocrotaline Model of Pulmonary Hypertension in Perspective. Am J Physiol Lund Cell Mol Physiol, 302(4): L363-9. 2012).
The currently preferred species for the study of MCT-induced PAH is the rat, with clinical signs of the illness manifesting in 3-7 days after the MCT injection in the form of anorexia, listlessness, failure to gain weight, and tachypnea. As the lung injury and vascular remodeling progress, the animals develop variable degrees of dyspnea, weakness, diarrhea and peripheral cyanosis (SCHOENTAL R., HEAD, M. A. Pathological changes in rats as a result of treatment with monocrotaline. Br J Cancer, 9(1):229-37. 1955). One week after the MCT injection, endothelial damage, inflammatory infiltration, and edema can be observed, but no increase in pulmonary arterial pressure (PAP). After two weeks, PAP is increased leading to right ventricle (RV) hypertrophy by the third week after drug administration (WEST, J., HEMMES, A. Experimental and transgenic models of pulmonary hypertension. Compr Physiol, 1(2):769-82. 2011).
To assess the potential benefit of SEQ ID NO: 19 in the treatment of PAH, we used adult healthy male Wistar Rats, which were then randomized into two groups: monocrotaline-induced PAH (MCT, n=14), in which animals received 60 mg/kg of MCT intraperitoneally (C2401, Sigma Chemical Co., St Louis, Mo., USA, Batch Number: WXBC4737V) and 2) control (CTRL, n=7), in which animals received a similar volume of saline solution intraperitoneally. This would be day 0 of the study. On the same day, prior to being randomized, the animals were subjected to echocardiographic analysis to establish a baseline. On day 14, another echocardiography was done, and PAH animals were further randomized to receive intranasal saline (SAL) or SEQ ID NO: 19 (0.06 mg/kg), twice daily for 14 days. On day 28, echocardiographies were repeated, RV exit area, left ventricle (LV) area, and PAT/PET (pulmonary arterial acceleration time (PAT)/pulmonary arterial ejection time (PET) ratio). In the PAH disease, the increase of PAP leads to an increase in RV area due to the increased pressure, and a decrease in the LV area, due to a reduction in blood flow to the left ventricle. […] Hemodynamic parameters were measured by invasive RV catheterization, including the systolic pressure of RV (RVSP) and the dP/dt ratio (a derivative of pressure/derivative of maximum time), which is correlated to the pressure in the RV.
The experiments were analyzed with two-way ANOVA, followed by Bonferroni's post-test to determine statistical significance. […]

[3] = RV catheterization, vs MCT+Vehicle
[4] = echocardiography, vs MCT+vehicle

SMILES	enhancing effect on relaxation induced by electric stimuli in strips of cavernous body contracted by phenylephrine [1]	dP/dt Max ratio [2, 3]	systolic pressure of RV (RVSP) [2, 3]	LV area [2, 4]	PAT/PET ratio [2, 4]	RV exit area [2, 4]
CC[C@H](C)[C@H](NC(=O)[C@H](Cc1c[nH]c2ccccc12)NC(=O)[C@H](Cc1ccccc1)NC(C)=O)C(=O)N[C@@H](C)C(=O)N[C@@H](Cc1c[nH]c2ccccc12)C(=O)N[C@@H](Cc1ccc(O)cc1)C(=O)N[C@@H](CCCCN)C(=O)N[C@@H](CC(C)C)C(=O)N[C@@H](C)C(N)=O [SEQ ID NO: 19, Ac-Phe-Trp-Ile-Ala-Trp-Tyr-Lys-Leu-Ala-NH2] (Ac-FWIAWYKLA-NH2)	enhancing effect	decrease	decrease in RVSP	increase in LV area	increases the PAT/PET ratio to values similar to the non-treated group (control)	decrease in RV exit area
CC[C@H](C)[C@H](NC(C)=O)C(=O)N[C@@H](C)C(=O)N[C@@H](Cc1c[nH]c2ccccc12)C(=O)N[C@@H](Cc1ccc(O)cc1)C(=O)N[C@@H](CCCCN)C(N)=O [SEQ ID NO: 24, Ac-Ile-Ala-Trp-Tyr-Lys-NH2] (Ac-IAWYK-NH2)	enhancing effect					
